Like-named read-outs stand apart in the source and are kept apart here.
How the values were obtained:
[1] = system: HIV-1 virus strains (e.g. YU2); details: cited from earlier work; for percentage compared to wild-type CCR5, 89.6 / percentage compared to wild-type CCR5, ADA / percentage compared to wild-type CCR5, DH123 / percentage compared to wild-type CCR5, JF-RL / percentage compared to wild-type CCR5, YU2: CCR5 alanine mutant, work of others; for percentage compared to wild-type CCR5, 89.6: HIV-1 strain 89.6; for percentage compared to wild-type CCR5, ADA: HIV-1 strain ADA; for percentage compared to wild-type CCR5, DH123: HIV-1 strain DH123; for percentage compared to wild-type CCR5, JF-RL: HIV-1 strain JF-RL; for percentage compared to wild-type CCR5, YU2: HIV-1 strain YU2
[2] = biological target: HIV-1LAI envelope gp120 (Human immunodeficiency virus type 1 group M subtype B, UniProt P03377); assay type: binding; details: for Counts per 20′ Average-background: CCR5 18-mer scan; for number of radioactive decays (counts) counted: human CD4 21-mer scan, empty control 2075; for Relative % of Control: mean of two syntheses and binding experiments ± average deviation, wild-type = 100%
[3] = radiolabeled HIV-1LAI gp120, background subtracted
[4] = CXCR4 18-mer scan, background subtracted, empty control 0
[5] = CXCR4 18-mer scan, empty control 412
[6] = Panel D, 9-mers and 12-mers of CD4, empty control […]
[7] = Panel B, 15-mers and 18-mers of CD4, empty control 575
[8] = STRL33 18-mer scan, background subtracted, first of two count columns
[9] = STRL33 18-mer scan, background subtracted, second of two count columns
[10] = Panel E, 9-mers and 12-mers of CD4, empty control 571

MDYAVSSPIYDINYYTSE: CCR5 (1-18) variant Q4A
percentage compared to wild-type CCR5, 89.6 [1]: 67% | percentage compared to wild-type CCR5, ADA [1]: 132% | percentage compared to wild-type CCR5, DH123 [1]: 105% | percentage compared to wild-type CCR5, JF-RL [1]: 111% | percentage compared to wild-type CCR5, YU2 [1]: 85%

MDYQVSSPIYDINYYTSA: CCR5 (1-18) variant E18A
percentage compared to wild-type CCR5, 89.6 [1]: 3% | percentage compared to wild-type CCR5, ADA [1]: 12% | percentage compared to wild-type CCR5, DH123 [1]: 10% | percentage compared to wild-type CCR5, JF-RL [1]: 12% | percentage compared to wild-type CCR5, YU2 [1]: 45%

MDYQVSSPIYDINYATSE: CCR5 (1-18) variant Y15A
percentage compared to wild-type CCR5, 89.6 [1]: 1% | percentage compared to wild-type CCR5, ADA [1]: 3% | percentage compared to wild-type CCR5, DH123 [1]: 0% | percentage compared to wild-type CCR5, JF-RL [1]: 3% | percentage compared to wild-type CCR5, YU2 [1]: 30%

MDYQVSSPIADINYYTSE: CCR5 (1-18) variant Y10A
percentage compared to wild-type CCR5, 89.6 [1]: 10% | percentage compared to wild-type CCR5, ADA [1]: 50% | percentage compared to wild-type CCR5, DH123 [1]: 3% | percentage compared to wild-type CCR5, JF-RL [1]: 26% | percentage compared to wild-type CCR5, YU2 [1]: 2%

MDYQVSSPIYAINYYTSE: CCR5 (1-18) variant D11A
percentage compared to wild-type CCR5, 89.6 [1]: 6% | percentage compared to wild-type CCR5, ADA [1]: 27% | percentage compared to wild-type CCR5, DH123 [1]: 3% | percentage compared to wild-type CCR5, JF-RL [1]: 22% | percentage compared to wild-type CCR5, YU2 [1]: 2%

Y3A: human CCR5 chemokine receptor with tyrosine 3 substituted by alanine, studied by others (cited 79% value)
percentage of binding of mutant polypeptide compared to wild-type polypeptide, gp120 ([2]; CCR5 alanine mutant peptide, radiolabeled HIV-1LAI gp120): 51.4% | ability to bind HIV-1LAI gp120 envelope protein in comparison to an equivalent wild-type peptide ([2]; CCR5 mutant polypeptide): 51.4% | percentage compared to wild-type CCR5, ADA [1]: 79% | percentage compared to wild-type CCR5, DH123 [1]: 42% | percentage compared to wild-type CCR5, JF-RL [1]: 82% | affinity relative to a non-mutated CCR5 chemokine receptor ([1]; mutated CCR5, data extracted from the work of others): 79%

MDYQVSSPIYDINAYTSE: CCR5 (1-18) variant Y14A
percentage compared to wild-type CCR5, 89.6 [1]: 6% | percentage compared to wild-type CCR5, ADA [1]: 47% | percentage compared to wild-type CCR5, DH123 [1]: 0% | percentage compared to wild-type CCR5, JF-RL [1]: 25% | percentage compared to wild-type CCR5, YU2 [1]: 12%

IVLLLNTFQEFFGLNNCS
Counts per 20′ Average-background [2, 3]: 2134 counts per 20′

FWKNFQTLKIVILGLVLP [CCR5 segment 189-]
Counts per 20′ Average-background [2, 3]: 40 counts per 20′

TEEMGSGDYDSMKEPCFR [CXCR4 segment 13-30]
radioactive counts recorded in twenty minutes [2, 4]: 41 counts | radioactive counts recorded in twenty minutes [2, 5]: 453 counts

KNLKIEDSD
COUNTS of radiolabeled gp120 retained [2, 6]: 612 counts

VQLLVFGLTANSDTH
COUNTS of radiolabeled gp120 retained [2, 7]: 1006 counts

AYLRACLNPVLYAFVSLK [STRL33 segment 277-294]
radioactive counts recorded in twenty minutes [2, 8]: 1802.5 counts | radioactive counts recorded in twenty minutes [2, 9]: 1849.5 counts

PKLMLSLKLENKEAKVSKREK [human CD4 336-356]
number of radioactive decays (counts) counted [2]: 1656 counts

EHQAFLQFS
Binding Results For Window Length (counts bound-background), 9 ([2]; STRL33 amino terminus, 9-mer starting at the first residue of the printed sequence, background subtracted): 7505 counts

SFPLAFTVE
COUNTS of radiolabeled gp120 retained [2, 10]: 619 counts

DTHLLQGQS
COUNTS of radiolabeled gp120 retained [2, 6]: 578 counts

AFQKASSIVYKKEGEQVEFSF
COUNTS of radiolabeled gp120 retained ([2]; Panel A, 21-mers of CD4, empty control 515 and 617): 3775 counts

TVEKLTGSG
COUNTS of radiolabeled gp120 retained [2, 10]: 487 counts

MDAQVSSPIYDINYYTSE [CCR5 (1-18) variant Y3A]
Relative % of Control ([2]; CCR5 (1-18) alanine variants): 51 ± 2%

ILLEIIKQGCEFENTVHK [CXCR4 segment 265-282]
radioactive counts recorded in twenty minutes [2, 4]: 117 counts | radioactive counts recorded in twenty minutes [2, 5]: 529 counts

KLSHSKGHQKRKALKTTV [CXCR4 segment 225-242]
radioactive counts recorded in twenty minutes [2, 4]: 130 counts | radioactive counts recorded in twenty minutes [2, 5]: 542 counts

MEGISIYASDNYTEEDGS
Relative % of Control ([2]; CXCR4 (1-18) alanine variants): 97 ± 10%

KRLLSEKKTCQCPERFQKTCS [human CD4 436-456]
number of radioactive decays (counts) counted [2]: 1674 counts

FIGFFSGIFFIILLTIDR
Counts per 20′ Average-background [2, 3]: 76 counts per 20′

KAVWVLNPEAGMWQCLLSDSG [human CD4 356-376]
number of radioactive decays (counts) counted [2]: 3133 counts

NSDTHLLQGQSLTLTLES
COUNTS of radiolabeled gp120 retained [2, 7]: 1726 counts

TEAIAYLRACLNPVLYAF [STRL33 segment 273-290]
radioactive counts recorded in twenty minutes [2, 8]: 604.5 counts | radioactive counts recorded in twenty minutes [2, 9]: 480.5 counts

GLTANSDTHLLQGQSLTL
COUNTS of radiolabeled gp120 retained [2, 7]: 572 counts

PQIIYGNVFNLDKLICGY
radioactive counts recorded in twenty minutes [2, 8]: −18.5 counts | radioactive counts recorded in twenty minutes [2, 9]: −37.5 counts

QWDFGNTMCQLLTGLYFI [CCR5 segment 93-]
Counts per 20′ Average-background [2, 3]: 1019 counts per 20′

LMKFIRSTHWEYYAMTSF [STRL33 segment 249-266]
radioactive counts recorded in twenty minutes [2, 8]: 934.5 counts | radioactive counts recorded in twenty minutes [2, 9]: 949.5 counts

VYKKEGEQVEFS
COUNTS of radiolabeled gp120 retained [2, 10]: 584 counts

KKEGEQVEF
COUNTS of radiolabeled gp120 retained [2, 10]: 546 counts

From patent US20030068615A1, “Polypeptides that bind HIV gp120 and related nucleic acids, antibodies, compositions, and methods of use” (priority 1999, published 2003)
